These compounds were tested against GST-Xa-hAAK1 (Homo sapiens (Human), UniProt Q2M2I8) (assay: biochemical). Details: not given.
In short: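 Bacterially expressed GST-Xa-hAAK1 was combined with substrates and compounds (eleven concentrations) and incubated 3 h at room temperature, then stopped with EDTA. Fluorescent substrate and phosphorylated product were separated electrophoretically (Caliper LabChip), and IC50 values came from non-linear regression.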

GST-Xa-hAAK1, sequence (Q2M2I8 whole entry): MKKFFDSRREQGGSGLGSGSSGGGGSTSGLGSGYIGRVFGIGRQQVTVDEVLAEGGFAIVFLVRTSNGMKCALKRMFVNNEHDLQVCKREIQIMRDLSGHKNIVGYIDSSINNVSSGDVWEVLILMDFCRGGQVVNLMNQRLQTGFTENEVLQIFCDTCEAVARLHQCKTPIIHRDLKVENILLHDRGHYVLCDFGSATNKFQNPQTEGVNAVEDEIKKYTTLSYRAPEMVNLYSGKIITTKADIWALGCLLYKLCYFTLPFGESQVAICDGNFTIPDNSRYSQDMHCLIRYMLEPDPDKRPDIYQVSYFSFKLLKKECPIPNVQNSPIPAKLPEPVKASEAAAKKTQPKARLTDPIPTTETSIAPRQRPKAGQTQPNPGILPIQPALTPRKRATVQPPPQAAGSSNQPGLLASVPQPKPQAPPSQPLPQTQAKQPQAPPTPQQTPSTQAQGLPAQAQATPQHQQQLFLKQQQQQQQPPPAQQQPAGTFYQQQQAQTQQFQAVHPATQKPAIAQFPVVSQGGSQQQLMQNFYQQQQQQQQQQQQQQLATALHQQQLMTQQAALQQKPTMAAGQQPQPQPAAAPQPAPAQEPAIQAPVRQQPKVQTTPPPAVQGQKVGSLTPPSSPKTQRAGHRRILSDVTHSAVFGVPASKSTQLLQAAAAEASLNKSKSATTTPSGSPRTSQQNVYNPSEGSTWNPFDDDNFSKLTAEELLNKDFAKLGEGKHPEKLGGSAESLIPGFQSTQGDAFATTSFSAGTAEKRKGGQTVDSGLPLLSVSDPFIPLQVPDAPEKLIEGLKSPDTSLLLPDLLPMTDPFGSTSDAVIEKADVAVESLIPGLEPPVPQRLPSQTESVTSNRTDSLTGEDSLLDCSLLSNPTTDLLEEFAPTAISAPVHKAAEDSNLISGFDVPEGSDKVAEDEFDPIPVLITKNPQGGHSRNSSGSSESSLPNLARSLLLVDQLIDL

Structure (SMILES) | IC50 [nM]
CC(C)(C)OCc1nc2ccc(-c3ccncc3)cc2[nH]1 [Example 55, 2-(tert-butoxymethyl)-6-(pyridin-4-yl)-1H-benzo[d]imidazole] | 1790
CN[C@H](CC(C)C)c1nc2cc(-c3ccnc(NC(C)=O)c3)ccc2[nH]1 [Example 63, (R)-N-(4-(2-(3-methyl-1-(methylamino)butyl)-1H-benzo[d]imidazol-5-yl)pyridin-2-yl)acetamide] | 14
CC(C)C[C@H](N)c1nc2cc(-c3ccncc3)ccc2s1 [Example 97, (S)-3-methyl-1-(5-(pyridin-4-yl)benzo[d]thiazol-2-yl) butan-1-amine] | 116

Same assay, conditions: ATP 22 μM; GST-Xa-hAAK1 3.5 nM; room temperature for 3 hours; Caliper LabChip 3000; read-out: AAK1 IC50

Structure (SMILES) | IC50 [nM]
CC(C)C[C@@H](N)c1nc2cc(-c3ccncc3)ccc2s1 [Example 96, (R)-3-methyl-1-(5-(pyridin-4-yl)benzo[d]thiazol-2-yl)butan-1-amine] | 797
NC(CCC(F)(F)F)c1nc2cc(-c3ccncc3)ccc2o1 (stereo not shown) [Example 93, 4,4,4-trifluoro-1-(5-(pyridin-4-yl)benzo[d]oxazol-2-yl)butan-1-amine] | 136
CC(C)C[C@@H](N)c1nc2ccc(-c3ccncc3)cc2n1C(C)C [Example 44, (R)-1-(1-isopropyl-6-(pyridin-4-yl)-1H-benzo[d]imidazol-2-yl)-3-methylbutan-1-amine] | 124
c1cc(-c2ccc3oc(CC4CCCC4)nc3c2)ccn1 [Example 90, 2-(cyclopentylmethyl)-5-(pyridin-4-yl)benzo[d]oxazole] | 818
CC(C)CCc1nc2ccc(-c3ccncc3)cc2[nH]1 [Example 106, 2-isopentyl-6-(pyridin-4-yl)-1H-benzo[d]imidazole] | 115
COc1cnccc1-c1ccc2[nH]c(CCC(C)C)nc2c1 [Example 56, 2-isopentyl-5-(3-methoxypyridin-4-yl)-1H-benzo[d]imidazole] | 620
CC(C(N)c1nc2ccc(-c3ccncc3)cc2[nH]1)C(F)(F)F (single isomer, unassigned) [Example 53, 3,3,3-trifluoro-2-methyl-1-(6-(pyridin-4-yl)-1H-benzo[d]imidazol-2-yl)propan-1-amine] | 521
COc1cc(-c2cnco2)cc2nc([C@H](N)CC(C)C)[nH]c12 [Example 21, (R)-1-(7-methoxy-5-(oxazol-5-yl)-1H-benzo[d]imidazol-2-yl)-3-methylbutan-1-amine] | 33
NC(CC(C(F)(F)F)C(F)(F)F)c1nc2cc(-c3ccncc3)ccc2o1 (stereo not shown) [Example 91, 4,4,4-trifluoro-1-(5-(pyridin-4-yl)benzo[d]oxazol-2-yl)-3-(trifluoromethyl)butan-1-amine] | 391
CC(C)CC(N)c1nc2ccc(-c3ccncc3)cc2o1 (stereo not shown) [Example 84, 3-methyl-1-(6-(pyridin-4-yl)benzo[d]oxazol-2-yl)butan-1-amine] | 438

From patent publication US10035777B2, “Heterocyclic kinase inhibitors” (priority 2014, dated 2018)
